According to patent US6538106B1, “Compositions and methods for treating infections using analogues of indolicidin” (priority 1996, dated 2003):
Several values for one entry are separate records, joined by “and”; a condition that tells them apart may be missing. Equal entries are not always repeated. Where two headings read alike, the source gives them in different places.

Legend:
Type in all cases: cell-based
P. aeruginosa = experiment: Synergy assay (agarose dilution, FIC); settings: for Mupirocin Comb. MIC: MIC of Mupirocin in combination with the peptide; for Peptide Comb. MIC: MIC of peptide in combination with Mupirocin
Procedure: (§1) Briefly, one assay for in vitro anti-bacterial activity, the agarose dilution assay, is set up with an array of plates that each contain a combination of peptide analogue and antibiotic in various concentrations. The plates are inoculated with bacterial isolates, incubated, and the MICs of the components recorded. […] Antibiotics used in testing include, but are not limited to, penicillins, cephalosporins, carbacephems, cephamycins, carbapenems, monobactams, aminoglycosides, glycopeptides, quinolones, tetracyclines, macrolides, and fluoroquinolones (see Table 1 below).
(§2) Synergy is calculated according to the formula below. An FIC of ≦0.5 is evidence of synergy, although combinations with higher values may be therapeutically useful. [formula]
(§3) Treatment with a combination of peptide analogues and conventional antibiotics can have a synergistic effect. Synergy is assayed using the agarose dilution technique, where an array of plates, each containing a combination of peptide and antibiotic in a unique concentration mix, is inoculated with the bacterial isolates. Synergy is investigated for peptide analogues in combination with a number of conventional antibiotics including, but not limited to, penicillins, cephalosporins, carbapenems, monobactams, aminoglycosides, macrolides, fluoroquinolones.
(§4) Synergy is expressed as a Fractional Inhibitory Concentration (FIC), which is calculated according to the equation below. An FIC of less than or equal to 0.5 is evidence of synergy, although combinations with higher values may be therapeutically useful. [formula]

E. faecalis = experiment: Synergy assay (agarose dilution, FIC); settings: E. faecalis EFS8; for Mupirocin Comb. MIC: MIC of Mupirocin in combination with the peptide; for Peptide Comb. MIC: MIC of peptide in combination with Mupirocin; for FIC: peptide + Mupirocin; for Peptide MIC: peptide alone
Procedure: as §1, §2, §3, §4

P. vulgaris = experiment: Synergy assay (agarose dilution, FIC); settings: P. vulgaris SBPV1; for Mupirocin Comb. MIC: MIC of Mupirocin in combination with the peptide; for Peptide Comb. MIC: MIC of peptide in combination with Mupirocin; for FIC: peptide + Mupirocin; for Peptide MIC: peptide alone
Procedure: as §1, §2, §3, §4

S. aureus = experiment: Synergy assay (agarose dilution, FIC); settings: for Mupirocin Comb. MIC: MIC of Mupirocin in combination with the peptide; for Peptide Comb. MIC: MIC of peptide in combination with Mupirocin; for Peptide MIC: peptide alone; for Ciprofloxacin Comb. MIC: MIC of Ciprofloxacin in combination with the peptide; for Peptide Comb MIC: MIC of peptide in combination with Ciprofloxacin
Procedure: as §1, §2
Synergy is assayed using the agarose dilution technique, where an array of plates, each containing a combination of peptide and antibiotic in a unique concentration mix, is inoculated with the bacterial isolates. Synergy is investigated for peptide analogues in combination with a number of conventional antibiotics including, but not limited to, penicillins, cephalosporins, carbapenems, monobactams, aminoglycosides, macrolides, fluoroquinolones.
as §4

E. coli = experiment: Synergy assay (agarose dilution, FIC); settings: for Mupirocin Comb. MIC: MIC of Mupirocin in combination with the peptide; for Peptide Comb. MIC: MIC of peptide in combination with Mupirocin; for FIC: peptide + Mupirocin; for Peptide MIC: peptide alone
Procedure: as §1, §2, §3, §4

S. marcescens = experiment: Synergy assay (agarose dilution, FIC); settings: for Mupirocin Comb. MIC: MIC of Mupirocin in combination with the peptide; for Peptide Comb. MIC: MIC of peptide in combination with Mupirocin; for FIC: peptide + Mupirocin; for Peptide MIC: peptide alone
Procedure: as §1, §2, §3, §4

bacteria = system: bacteria
[1] = S. aureus SBSA3, peptide + Mupirocin
[2] = S. aureus SBSA4, peptide + Mupirocin

C/C(=C\C(=O)OCCCCCCCCC(=O)O)C[C@@H]1OC[C@H](C[C@@H]2O[C@H]2[C@@H](C)[C@H](C)O)[C@@H](O)[C@H]1O [Mupirocin, reference compound]
Mupirocin MIC (P. aeruginosa; P. aeruginosa PA24, Mupirocin alone): >100 µg/mL | MIC (E. faecalis; Enterococcus faecalis, Mupirocin alone): 100 µg/mL | MIC (P. vulgaris; Proteus vulgaris, Mupirocin alone): 3 µg/mL | MIC (S. aureus; Staphylococcus aureus, S. aureus SBSA5, Mupirocin alone): 30 µg/mL

I L K K W P W W P W K [MBI 11G13CN]
Mupirocin Comb. MIC (E. coli; E. coli ECO5): 30 µg/mL | Peptide Comb. MIC (E. coli; E. coli ECO5): 8 µg/mL | FIC (E. coli; E. coli ECO5): 0.43 | Peptide MIC (E. coli; E. coli ECO5): 64 µg/mL | Mupirocin Comb. MIC (S. marcescens; S. marcescens SBSM1): >100 µg/mL | Peptide Comb. MIC (S. marcescens; S. marcescens SBSM1): >128 µg/mL | FIC (S. marcescens; S. marcescens SBSM1): 2 | Peptide MIC (S. marcescens; S. marcescens SBSM1): >128 µg/mL | Mupirocin Comb. MIC (P. vulgaris): 3 µg/mL | Peptide Comb. MIC (P. vulgaris): >128 µg/mL and 64 µg/mL | FIC (P. vulgaris): 2 and 1.25 | Peptide MIC (P. vulgaris): >128 µg/mL | Mupirocin Comb. MIC (S. aureus; S. aureus SBSA3): 100 µg/mL | Peptide Comb. MIC (S. aureus; S. aureus SBSA3): 64 µg/mL | FIC (S. aureus; [1]): 2 | Peptide MIC (S. aureus; S. aureus SBSA3): 64 µg/mL

I L K K W P W W P W R K [MBI 11B4CN]
Mupirocin Comb. MIC (E. coli; E. coli ECO1): 10 µg/mL | Peptide Comb. MIC (E. coli; E. coli ECO1): 4 µg/mL | FIC (E. coli; E. coli ECO1): 0.26 | Peptide MIC (E. coli; E. coli ECO1): 16 µg/mL | Mupirocin Comb. MIC (S. marcescens; S. marcescens SBSM1): >100 µg/mL | Peptide Comb. MIC (S. marcescens; S. marcescens SBSM1): >128 µg/mL | FIC (S. marcescens; S. marcescens SBSM1): 2 | Peptide MIC (S. marcescens; S. marcescens SBSM1): >128 µg/mL | Mupirocin Comb. MIC (E. faecalis): 100 µg/mL | Peptide Comb. MIC (E. faecalis): 64 µg/mL | FIC (E. faecalis): 2 | Peptide MIC (E. faecalis): 64 µg/mL | Mupirocin Comb. MIC (S. aureus; S. aureus SBSA3): 10 µg/mL | Peptide Comb. MIC (S. aureus; S. aureus SBSA3): 16 µg/mL | FIC (S. aureus; [1]): 0.60 | Peptide MIC (S. aureus; S. aureus SBSA3): 32 µg/mL | Mupirocin Comb. MIC (S. aureus; S. aureus SBSA4): >100 µg/mL | Peptide Comb. MIC (S. aureus; S. aureus SBSA4): 8 µg/mL | FIC (S. aureus; [2]): 2 | Peptide MIC (S. aureus; S. aureus SBSA4): 8 µg/mL

I L K K W P W W P W R R K [MBI 11CAN]
MIC (bacteria; A. calcoaceticus AC002, listed as MBI 11ACN): 2 µg/mL | MIC (bacteria; E. coli ECO005, listed as MBI 11ACN): 16 µg/mL | MIC (bacteria; E. faecalis EFS004, listed as MBI 11ACN): 8 µg/mL | MIC (bacteria; K. pneumoniae KP001, listed as MBI 11ACN): 16 µg/mL | MIC (bacteria; S. epidermidis SE010, listed as MBI 11ACN): 4 µg/mL | MIC (bacteria; S. maltophilia SMA002, listed as MBI 11ACN): 64 µg/mL

I L K K Y P Y Y P Y R R K [MBI 11A3CN]
Mupirocin Comb. MIC (E. coli; E. coli SBECO1): 30 µg/mL | Peptide Comb. MIC (E. coli; E. coli SBECO1): 8 µg/mL | FIC (E. coli; E. coli SBECO1): 0.43 | Mupirocin Comb. MIC (S. marcescens; S. marcescens SBSM2): >100 µg/mL | Peptide Comb. MIC (S. marcescens; S. marcescens SBSM2): >128 µg/mL | FIC (S. marcescens; S. marcescens SBSM2): 2 | Mupirocin Comb. MIC (P. aeruginosa; P. aeruginosa PA3): >100 µg/mL | Peptide Comb. MIC (P. aeruginosa; P. aeruginosa PA3): >128 µg/mL | FIC (P. aeruginosa; P. aeruginosa PA3, peptide + Mupirocin): 2 | Mupirocin Comb. MIC (E. faecalis): 100 µg/mL | Peptide Comb. MIC (E. faecalis): >128 µg/mL | FIC (E. faecalis): 2 | Mupirocin Comb. MIC (S. aureus; S. aureus SBSA2): >100 µg/mL | Peptide Comb. MIC (S. aureus; S. aureus SBSA2): 128 µg/mL | FIC (S. aureus; S. aureus SBSA2, peptide + Mupirocin): 2

K R R W V W W V W R L I [MBI 11F4CNR]
MIC (bacteria; S. epidermidis SE010): 8 µg/mL

W R I W K P K W R L P K W [MBI 11D18CN]
Mupirocin Comb. MIC (E. coli; E. coli SBECO2): 10 µg/mL | Peptide Comb. MIC (E. coli; E. coli SBECO2): 1 µg/mL | FIC (E. coli; E. coli SBECO2): 0.07 | Peptide MIC (E. coli; E. coli SBECO2): 16 µg/mL | Mupirocin Comb. MIC (S. marcescens; S. marcescens SBSM1): 30 µg/mL | Peptide Comb. MIC (S. marcescens; S. marcescens SBSM1): 64 µg/mL | FIC (S. marcescens; S. marcescens SBSM1): 0.28 | Peptide MIC (S. marcescens; S. marcescens SBSM1): >128 µg/mL | Mupirocin Comb. MIC (P. aeruginosa; P. aeruginosa PA2): 30 µg/mL | Peptide Comb. MIC (P. aeruginosa; P. aeruginosa PA2): 64 µg/mL | FIC (P. aeruginosa; P. aeruginosa PA2, peptide + Mupirocin): 0.53 | Peptide MIC (P. aeruginosa; P. aeruginosa PA2, peptide alone): 128 µg/mL | Ciprofloxacin Comb. MIC (P. aeruginosa; P. aeruginosa PA24, MIC of Ciprofloxacin in combination with the peptide): 4 µg/mL | Mupirocin Comb. MIC (P. aeruginosa; P. aeruginosa PA24): >100 µg/mL | Peptide Comb MIC (P. aeruginosa; P. aeruginosa PA24, MIC of peptide in combination with Ciprofloxacin): 16 µg/mL | Peptide Comb. MIC (P. aeruginosa; P. aeruginosa PA24): >128 µg/mL | FIC (P. aeruginosa; P. aeruginosa PA24, peptide + Ciprofloxacin): 0.31 | FIC (P. aeruginosa; P. aeruginosa PA24, peptide + Mupirocin): 2 | Peptide MIC (P. aeruginosa; P. aeruginosa PA24, peptide alone (Ciprofloxacin table)): >128 µg/mL | Peptide MIC (P. aeruginosa; P. aeruginosa PA24, peptide alone (Mupirocin table)): >128 µg/mL | Mupirocin Comb. MIC (E. faecalis): 100 µg/mL | Peptide Comb. MIC (E. faecalis): 16 µg/mL | FIC (E. faecalis): 2 | Peptide MIC (E. faecalis): 16 µg/mL | Mupirocin Comb. MIC (P. vulgaris): 3 µg/mL | Peptide Comb. MIC (P. vulgaris): 4 µg/mL | FIC (P. vulgaris): 1.13 | Peptide MIC (P. vulgaris): 32 µg/mL | Ciprofloxacin Comb. MIC (S. aureus; S. aureus SA10): 32 µg/mL | Peptide Comb MIC (S. aureus; S. aureus SA10): 2 µg/mL | FIC (S. aureus; S. aureus SA10, peptide + Ciprofloxacin): 2.00 | Peptide MIC (S. aureus; S. aureus SA10): 2 µg/mL | Ciprofloxacin Comb. MIC (S. aureus; S. aureus SA14): 8 µg/mL | Peptide Comb MIC (S. aureus; S. aureus SA14): 4 µg/mL | FIC (S. aureus; S. aureus SA14, peptide + Ciprofloxacin): 1.00 | Peptide MIC (S. aureus; S. aureus SA14): 8 µg/mL | Mupirocin Comb. MIC (S. aureus; S. aureus SBSA4): 0.1 µg/mL | Peptide Comb. MIC (S. aureus; S. aureus SBSA4): 2 µg/mL | FIC (S. aureus; [2]): 0.13 | Peptide MIC (S. aureus; S. aureus SBSA4): 16 µg/mL
